# Patent publication US20040048900A1, “Nicotine and/or nicotine agonists for the treatment of general anesthetic effects and side effects” (priority 2002, published 2004)
# Assays:
# [1] = system: norepinephrine levels in brain and spinal cord; assay: HPLC of norepinephrine, 5-HT, dopamine and metabolites after DSP-4; assay type: in vivo, mice; settings: DSP4-treated n = 2
# From the text: (§1) How could nicotinic inhibition cause hyperalgesia? Nicotine is thought to exert its analgesic action by increasing the release of norepinephrine, serotonin and acetylcholine onto the relay neurons in the dorsal horn of the spinal cord (Rao, 1996; and Reuter, 2000). Isoflurane might reduce pain threshold by inhibiting nicotinic acetylcholine receptors tonically active in potentiating the release of norepinephrine, serotonin and/or acetylcholine. To test the role of the α-adrenergic system, mice were treated systemically with the adrenergic neurotoxin DSP-4 to deplete norepinephrine levels (Jonsson, 1981). The DSP-4 mice 14 days after treatment were tested for HPWL in the presence of isoflurane alone or isoflurane with nicotine pretreatment (see methods).
# The HPLC procedures were conducted according to the methods described by Underwood et al. (Underwood, 1999).
# [2] = Qian, 1993; Badio, 1994; cited from earlier work
# mice [3] = system: mice
# From the text: Nicotinic acetylcholine receptors are involved in the mechanism of isoflurane hyperalgesia, and nicotinic inhibition could be the initiating event.
# as §1
# To test the role of muscarinic receptors for acetylcholine, mice were treated with the nonspecific muscarinic antagonist, atropine. A cholinergic neurotoxin could not be used for these studies, because removing all cholinergic neurons would have nicotinic in addition to muscarinic effects. Instead, postsynaptic muscarinic blockade was used. ACh causes analgesia, at least in part due to muscarinic stimulation (Chiari, 1999; Smith, 1989; and Lavand'homme, 1999). […] High concentrations of atropine can block nicotinic acetylcholine receptors as well (Zwart, 1997).
# NMDA = settings: O'Dell, 1988; Papke, 2001; cited from earlier work
# [4] = biological target: T1, human α4β2 nAChRs expressed in Xenopus oocytes (Homo sapiens, UniProt P17787+P43681); assay: Two-microelectrode voltage clamp of ACh-activated currents in Xenopus oocytes; assay type: cell-based
# T1 construct: expressed in transfected cells; host or cells: Xenopus laevis oocytes injected with cRNA (1:1 α4 to β2)
# T1 sequence (P43681 29-627 limits assumed): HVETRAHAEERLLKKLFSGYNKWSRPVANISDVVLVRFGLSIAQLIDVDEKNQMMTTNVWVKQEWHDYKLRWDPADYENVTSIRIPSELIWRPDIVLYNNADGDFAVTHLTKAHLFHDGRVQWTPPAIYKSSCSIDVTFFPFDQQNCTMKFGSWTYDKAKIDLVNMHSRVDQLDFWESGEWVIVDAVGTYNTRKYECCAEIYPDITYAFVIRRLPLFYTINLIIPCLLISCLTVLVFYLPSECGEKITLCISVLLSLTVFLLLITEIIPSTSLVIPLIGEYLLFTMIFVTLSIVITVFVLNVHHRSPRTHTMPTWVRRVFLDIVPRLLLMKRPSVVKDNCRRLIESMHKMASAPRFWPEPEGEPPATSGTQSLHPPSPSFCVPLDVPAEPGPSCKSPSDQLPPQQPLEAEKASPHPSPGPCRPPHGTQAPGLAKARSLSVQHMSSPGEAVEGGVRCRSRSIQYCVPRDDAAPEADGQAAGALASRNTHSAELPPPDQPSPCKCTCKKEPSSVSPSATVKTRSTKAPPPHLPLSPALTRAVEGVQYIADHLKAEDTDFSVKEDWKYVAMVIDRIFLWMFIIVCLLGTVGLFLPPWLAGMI
# T1 sequence (P17787 26-502): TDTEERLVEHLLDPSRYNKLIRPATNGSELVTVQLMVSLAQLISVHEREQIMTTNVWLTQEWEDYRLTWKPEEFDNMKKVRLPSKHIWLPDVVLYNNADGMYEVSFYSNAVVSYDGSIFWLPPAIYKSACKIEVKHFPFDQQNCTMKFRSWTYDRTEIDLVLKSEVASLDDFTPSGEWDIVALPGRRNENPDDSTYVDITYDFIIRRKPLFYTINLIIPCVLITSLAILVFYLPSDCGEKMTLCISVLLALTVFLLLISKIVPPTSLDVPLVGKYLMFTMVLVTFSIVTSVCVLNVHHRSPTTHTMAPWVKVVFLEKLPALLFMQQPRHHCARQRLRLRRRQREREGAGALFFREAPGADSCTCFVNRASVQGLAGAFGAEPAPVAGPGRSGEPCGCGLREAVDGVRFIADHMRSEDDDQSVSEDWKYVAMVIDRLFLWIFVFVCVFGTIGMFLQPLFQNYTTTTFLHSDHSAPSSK
# Experimental: The human α4 and β2 type nAChRs were in a pSP64 expression vector. Standard techniques were used to linearize the vectors and use them as templates to make cRNA using SP6 as the polymerase. The human nicotinic clones were a gift from Dr. Jon Lindstrom, Ph.D. (Department of Neuroscience, University of Pennsylvania, Philadelphia, Pa.).
# Xenopus laevis oocytes were removed from the females and defolliculated with collagenase. After the oocytes rested for 24 hours in L-15 oocyte medium, about 10 ng of a 1:1 ratio of α4 to β2 cRNA were injected into individual oocytes. A manual injector was used for this process (Nanoject; Drummond Scientific, Broomall, Pa.). The oocytes were incubated for 2-5 days in ND-96 medium (NaCl 96 mM, KCl 2 mM, MgCl2 1 mM, CaCl2 H2O 1.8 mM, HEPES 5 mM, Na-pyruvate 2.5 mM, theophylline 0.5 mM, and 10mg/L of gentamicin, adjusted to pH 7.5).
# Whole oocytes were used to record currents using a Gene-Clamp 500 two-microelectrode voltage-clamp amplifier with an active ground (Axon Instruments, Inc., Foster, Cailf.). The recording electrodes were pulled from glass capillary tubing (Drummond, Broomall, Pa.) to obtain a resistance between 1 and 5 MΩ and filled with 3M KCl. Ba^2 Ringer's solution was used as the extracellular solution in order to avoid current amplification by calcium activated chloride currents (115 mM NaCl, 2.5 mM KCl, 1.8 mM BaCl2, 10 mM HEPES, 1 μM atropine, pH 7.4). Atropine was included to avoid activation of intrinsic muscarinic receptors. Experiments were performed at room temperature. Isoflurane was prepared from a saturated solution by serial dilution. Concentrations were verified by gas chromatography.
# Oocytes were tested at a membrane potential of −60 mV. Bolus application of the agonist +/− indicated antagonist(s) was applied at a rate of 4 ml/min for a 2 second application.
# Antagonists were pre-applied for 2 minutes prior to activation. Concentration response curves were made from the percent change in peak current from ACh activation in the presence of antagonist(s), compared to ACh alone. As the ACh concentration at central neuronal nAChRs is unknown, 1 mM ACh (saturating) was used to detect inhibition by isoflurane and mecamylamine experiments with mecamylamine. ACh 2 μM was used to detect potentiation by nicotine. Currents were measured in 5-8 cells for each data point. Clampex 7 (Axon instruments, Foster City, Calif.) was used for data acquisition.
# Microcal Origins 5.0 (Microcal, Northampton, Mass.) was used for statistical calculations and graphical presentation. The in vitro data were fit to a modified Hill equation, y=100/(1+(x/IC50)^n), where IC50 is the concentration of drug at which of 50% of the response is inhibited and n is the Hill coefficient.
# seizures induced by NMDA = settings: McDonough, 1995; cited from earlier work
# in vivo = settings: female, mouse, plasma, 5 mg/kg
# Experimental: (§2) The duration of mecamylamine's action was tested with two control experiments. First, 5 mice were injected with mecamylamine 5 mg/kg IP or saline. These mice were then tested at 1-hour intervals with nicotine 1 mg/kg IP. […] Mecamylamine plasma concentration was measured in 5 female mice, 1 hour after I.P. injection using a combination of Gas Chromatography and Mass Spectroscopy described by Jacob et al. (Jacob, 2000).
# mice [5] = assay: Nicotine-induced prostration, duration of mecamylamine blockade
# Experimental: as §2
# non-smoking volunteers = settings: cited from earlier work
# [6] = system: women having pelvic surgery
# Experimental: In a double blind, randomized trial of women having pelvic surgery with an isoflurane anesthetic, either nicotine (nasal spray, 3 mg) or saline placebo was administered just prior to emergence from anesthesia. Postoperative pain was assessed using the visual analog scale (VAS). In the VAS, patients are asked how much pain they have on a scale from 0-10 where 0 is no pain and 10 is the worst pain imaginable. All patients had access to essentially unlimited morphine in a PCA pump as is routine after this type of surgery.
# [7] = nicotine 1 mg/kg, Thompson, 1982, cited from earlier work
# [8] = system: ^3H-norepinephrine release from female mouse lumbar spinal cord slice; assay: 3H-norepinephrine release from superfused spinal cord slice; settings: 1 mM nicotine in perfusion buffer, p<0.02
# From the text: Spinal Cord Slice Preparation: The spinal cord was dissected from the mouse. Under CO2 narcosis the mouse was decapitated. The spinal column was removed and placed into cold dissection solution where the spinal cord was removed with a dissection microscope. The lumbar section of the cord was isolated and imbedded in a 3% low melting point agar (Fisher Scientific) block made in dissection solution. Transverse 400 micrometer slices were made using a Vibratone VT1000S slicing apparatus (Leica, Whetzlar, Germany). Slicing was performed in ice cold Krebs solution bubbled with 5%CO2/95%O2.
# The cord slices were incubated in a solution of 1 ml of Krebs solution and 10 ul of 1-[7,8-^3H] noradrenaline in a closed environment surrounded by Krebs solution bubbled with CO2/O2 for 30 minutes. The slices were transferred into a superfusion and stimulation chamber (Warner Instruments Inc.,) where Krebs solution was allowed to perfuse over them for 30 minutes at a rate of 0.5 ml/min. The superfusion chamber thermostatically temperature controlled at 37° C. The solutions were pumped to the chamber at a constant rate of 0.5 ml/min using a Kwik-Pump 290 (Long). Following a 30 minute period for equilibration, collections were taken every 1-2.5 minutes. Ecolite scintillation fluid (15 ml) was then added to each collection vial. The samples were analyzed for radioactivity (CPM) using a Packard TRI CARB 2100 TR scintillation counter (Meriden, Conn.).
# Dissection Krebs Solution (mM) NaCl 125, KCl 2.5, NaHCO3 26, NaH2PO4-H2O1.25, MgCl2 6,CaCl2 1.5, glucose 2.5. Perfusion Krebs Solution (mM) NaCl 125, KCl 2.5, NaHCO3 26, NaH2PO4—H2O 1.25, MgCl2 1,CaCl2 2, glucose 2.5.
# After incubation with ^3H-norepinephrine, the cord slices were perfused with buffer for 30 minutes at 0.5 ml/minute. After equilibration, samples containing released ^3H-norepinephrine were collected at 2.5 minute intervals. After determination of baseline release, the slices were stimulated with 1 mM nicotine in the perfusion buffer.
# [9] = 3 mg intranasally, Fishbein, 2000
# [10] = 3 mg intranasally, Guthrie, 1999
smiles,measurement,setting,value
CCN(CCCl)Cc1ccccc1Br [DSP4],MHPG concentration (HPLC),"[1]; Brain Stem, control 253.3",104.9
same,HVA concentration (HPLC),"[1]; Brain Stem, control 300.1",275.2
same,DA concentration (HPLC),"[1]; Brain Stem, control 599.2",621.0
same,DOPAC concentration (HPLC),"[1]; Brain Stem, control 662.4",494.6
same,NE concentration (HPLC),"[1]; Brain Stem, control 1044.1",811.2
same,5-HT concentration (HPLC),"[1]; Brain Stem, control 2336.9",2140.3
same,5HIAA concentration (HPLC),"[1]; Brain Stem, control 2972.1",2746.9
same,HVA concentration (HPLC),"[1]; Medulla, control 118.5",88.0
same,DA concentration (HPLC),"[1]; Medulla, control 168.7",138.2
same,MHPG concentration (HPLC),"[1]; Medulla, control 194.5",139.3
same,DOPAC concentration (HPLC),"[1]; Medulla, control 248.3",196.0
same,5-HT concentration (HPLC),"[1]; Medulla, control 1152.5",1054.9
same,5HIAA concentration (HPLC),"[1]; Medulla, control 1184.1",1302.6
same,NE concentration (HPLC),"[1]; Medulla, control 1408.8",812.0
same,HVA concentration (HPLC),"[1]; Pons, control 100.7",181.6
same,DA concentration (HPLC),"[1]; Pons, control 128.1",379.6
same,MHPG concentration (HPLC),"[1]; Pons, control 235.9",122.1
same,DOPAC concentration (HPLC),"[1]; Pons, control 341.8",345.3
same,5-HT concentration (HPLC),"[1]; Pons, control 996.8",1597.6
same,5HIAA concentration (HPLC),"[1]; Pons, control 1334.6",2024.7
same,NE concentration (HPLC),"[1]; Pons, control 1345.9",811.6
same,HVA concentration (HPLC),"[1]; Spinal cord, control 38.2",23.0
same,MHPG concentration (HPLC),"[1]; Spinal cord, control 82.5",62.6
same,DOPAC concentration (HPLC),"[1]; Spinal cord, control 136.4",118.8
same,DA concentration (HPLC),"[1]; Spinal cord, control 182.6",210.9
same,NE concentration (HPLC),"[1]; Spinal cord, control 798.8",587.6
same,5HIAA concentration (HPLC),"[1]; Spinal cord, control 1057.9",1111.3
same,5-HT concentration (HPLC),"[1]; Spinal cord, control 1122.1",808.6
Clc1ccc(C2CC3CCC2N3)cn1 (stereo not drawn) [Epibatidine],potency for analgesia relative to morphine,[2],approximately 200 times
CN1[C@@H]2CC[C@H]1C[C@@H](OC(=O)C(CO)c1ccccc1)C2 (stereo partly drawn) [atropine],effect on hyperalgesic response to isoflurane,mice [3]; atropine 5 mg/kg,had no effect on the hyperalgesic response to isoflurane
same,minimum concentration that caused baseline hyperalgesia,"mice [3]; mouse, in vivo",5 mg/kg
CNC1(C)C2CCC(C2)C1(C)C (stereo not drawn) [mecamylamine],concentration range with NMDA antagonist properties,NMDA,~100 µM
same,mode of antagonism at heteromeric nAChRs,[4],non-competitive antagonists
same,IC50,"[4]; 1 mM ACh, −60 mV, room temperature, read-out: IC50 for inhibition of α4β2 nAChR",290 ± 50 nM
same,interaction of mecamylamine and isoflurane applied together (isobolographic analysis),[4]; inhibition of α4β2 nAChR activation,within the 95% confidence intervals for additivity
same,ED50 for inhibition of seizures induced by NMDA,seizures induced by NMDA,12 ± 3.2 mg/kg
same,concentration at 1 h,in vivo; intraperitoneal,200 ± 70 nM
same,concentration at 1 h,in vivo; ip,203 nM
same,duration of blockade of prostration from nicotine 1 mg/kg IP,"mice [5]; mecamylamine 5 mg/kg IP, tested at 1-hour intervals",up to 4 hours
"CN1CCC[C@H]1c1cccnc1 [nicotine, (s)-(−)-nicotine]",current relative to ACh 2 μM alone in presence of isoflurane,"[4]; ACh 2 μM nicotine 2 μM, given concentration of isoflurane",always larger
same,current relative to ACh alone,[4]; nicotine 2 μM added to ACh 2 μM,produces a larger current than ACh alone
same,analgesia by ICV nicotine,"mice [3]; mouse, in vivo",caused significant analgesia both in the presence and absence of isoflurane
same,effect of ICV nicotine on isoflurane hyperalgesia,"mice [3]; mouse, in vivo",did not prevent hyperalgesia with isoflurane
same,protection against isoflurane hyperalgesia in presence of atropine,"mice [3]; nicotine 1 mg/kg, atropine 5 mg/kg",remained protective against the hyperalgesia
same,effect on HPWL in DSP-4 treated mice,"mice [3]; nicotine pretreatment, baseline or isoflurane",without effect
same,average increase in systolic blood pressure,non-smoking volunteers; [9],7 mM of mercury
same,diastolic blood pressure or heart rate,non-smoking volunteers; [9],no change
same,arterial peak concentration,non-smoking volunteers; [10],100 µM
same,steady state venous concentration,non-smoking volunteers; [10],30 µM
same,time of peak effect,non-smoking volunteers; intranasal nicotine,peak effect in five minutes
same,time until effect is dissipated,non-smoking volunteers; intranasal nicotine,dissipated in about one hour
same,ill effects,[6]; nicotine nasal spray 3 mg,no severe ill effects
same,"postoperative pain, VAS scores",[6]; nicotine nasal spray 3 mg prior to emergence vs saline placebo,significantly lower VAS scores
same,heart rate,[6]; nicotine nasal spray 3 mg vs placebo,higher heart rates
same,morphine used in the first hour (PCA pump),"[6]; nicotine nasal spray 3 mg, placebo 12 mg",4 mg
same,blood pressures,[6]; with or without nicotine,not different
same,detectability by HPLC at 40 minutes,[7],undetectable by HPLC at 40 minutes
same,peak concentration,[7]; at 5 minutes,approximately 2 μM
same,time until mice lay prone,"mice [5]; nicotine 1 mg/kg IP, mice not pretreated with mecamylamine",≤ 5 min
same,release of ^3H-norepinephrine,[8],caused an increase in the release of ^3H-norepinephrine
